Measurements taken from patent publication US20230141718A1, “METHODS OF TREATING GLIOBLASTOMA” (CELGENE QUANTICEL RESEARCH, INC., priority 2021, published 2023).

Assays:
Assay type in all cases: in vivo, human
[1] = system: HEXIM1 (hexamethylene bis-acetamide-inducible protein 1) mRNA; experiment: Blood and tumor HEXIM1 mRNA pharmacodynamics, CC-90010-GBM-001
Protocol: The primary objectives of the study in this example were determination of tumor tissue concentration and plasma pharmacokinetics (PK) of Compound A. The secondary and exploratory objectives included safety, antitumor activity, cerebrospinal fluid concentration, and pharmacodynamics (PD).
(§1) Patients were treated with Compound A at 30 mg daily on Day 1 to Day 4 prior to undergoing indicated tumor resection and to maintain platelet count above the minimum of […] recommended for surgery (Part A, preoperative treatment). Following recovery from surgery and a minimum of 4 weeks from the first dose of Compound A, subjects who were fit to continue were treated with Compound A at 45 mg on a 4 days on/24 days off schedule (180 mg per 28-day cycle). Maintenance treatment continued until disease progression, unacceptable toxicity, or withdrawal of consent.
Blood HEXIM1 (hexamethylene bis-acetamide-inducible protein 1) mRNA was increased at 72-96 hours following first dose, and the percentage increase correlated with plasma concentration of Compound A at surgery. Tumor HEXIM1 RNA increased in 10 of 11 patients. Additionally, blood HEXIM1 mRNA expression was increased in all subjects at 72-96 hours following the first dose. Percentage HEXIM1 increase was related to plasma Compound A concentration at biopsy.

[2] = system: progressive or recurrent astrocytoma or recurrent glioblastoma; experiment: Antitumor response per RANO and PFS, CC-90010-GBM-001
Excerpt: (§2) The Response Assessment in Neuro-Oncology criteria (RANO) is used to assess response to first-line treatment of glioblastoma. See, Leao, D. J. et al., American Journal of Neuroradiology 2019, 1-11. The RANO criteria divides response into four types of response based on imaging (MRI) and clinical features: (1) complete response (CR); (2) partial response (PR); (3) stable disease (SD); and (4) progression. For this assessment, a measurable disease is defined as bidimensional contrast-enhancing lesions with clearly defined margins, with 2 perpendicular diameters of at least 10 mm, visible on ≥2 axial slices. The nonmeasurable disease is defined as either unidimensional measurable lesions, masses with margins not clearly defined as frequently noted in the surgical margins, or lesions with maximal perpendicular diameters of <10 mm.
The study described in this example (CC-90010-GBM-001 study/NCT04047303) enrolled patients with progressive or recurrent astrocytoma or recurrent glioblastoma who have failed radiation and chemotherapy, and who are candidates for surgical tumor resection as part of their salvage regimen.
as §1

newly diagnosed GBM = experiment: Efficacy (duration of treatment, PFS, best overall response), CC-90010-GBM-002 Part A
Excerpt: as §2
The study described in this example (CC-90010-GBM-002/NCT04324840) is a phase 1B dose-finding study investigating standard of care of Compound A in combination with TMZ with or without radiotherapy (RT) in subjects with newly diagnosed GBM. Part A of the study is escalating the oral doses of Compound A in combination with adjuvant TMZ to estimate the MTD and/or the RP2D of Compound A as adjuvant therapy and escalating the oral doses of Compound A in combination with concomitant TMZ+radiotherapy (RT) to estimate the MTD and/or the RP2D of Compound A as concomitant therapy. Part B of the study is the safety and efficacy of Compound A administered at or below the MTD determined for the adjuvant therapy (AT) and concomitant therapy (CT).
For adjuvant therapy, Compound A and TMZ was administered for 6 cycles, then Compound A as a monotherapy was administered in 28-day cycles until disease progression, start of a new anticancer therapy, or withdrawal of consent or physician's decision. For adjuvant therapy, Compound A was administered at 15, 30, and 45 mg 4 days on/24 days off and TMZ was administered at 150 or 200 mg/m^2 QD Days 1-5, followed by Compound A at 45 mg 4 days on/24 days off. For adjuvant therapy, part B, Compound A was administered at RP2D and TMZ was administered at 150 or 200 mg/m^2, followed by Compound A at 45 mg 4 days on/24 days off.
For concomitant therapy, Compound A, TMZ, and RT were administered for 6 weeks, then 4-week break, followed by adjuvant Compound A and TMZ for 6 cycles then Compound A monotherapy in 28-day cycles until disease progression, start of a new anticancer therapy, withdrawal of consent or physician's decision. For concomitant therapy, part A, Compound A was administered at 15 mg or 30 mg QD Days 1-4 (weeks 1,5), TMZ was administered at 75 mg/m^2/day QD, and RT was administered at 2 Gy QD×5 days/week, for 42 days. This was then followed by a break in treatment therapy, e.g., from 1 to up to 4 weeks. Thereafter, adjuvant therapy was initiated by administering Compound A at 30 mg or 45 mg and TMZ at 150 or 200 mg/m^2 QD Days 1-5 of a 28-day cycle. Adjuvant therapy cycles were repeated from 2 to 6 times. After adjuvant therapy, was a monotherapy treatment. Monotherapy comprised administering Compound A at 45 mg 4 days on/24 days off.
For Part A, eighteen patients were enrolled in the adjuvant cohort and received adjuvant Compound A 15 mg/day (n=5), 30 mg/day (n=6), or 45 mg/day (n=7) 4 days on/24 days off plus TMZ followed by Compound A monotherapy 45 mg/day 4 days on/24 days off. Fourteen patients were enrolled in the concomitant cohort and received concomitant Compound A 15 mg/day (n=6) or 30 mg/day (n=8) 4 days on/24 days off in combination with TMZ and RT, followed by adjuvant Compound A 30 mg/day 4 days on/24 days off and Compound A monotherapy 45 mg/day 4 days on/24 days off. The demographics and characteristics of treated patients are described in the below table.

## Cn1cc(-c2cc(S(C)(=O)=O)ccc2OCC2CC2)c2ccccc2c1=O [Compound A, 4-[2-(cyclopropylmethoxy)-5-methylsulfonylphenyl]-2-methylisoquinolin-1-one]
[1]; 72-96 hours following first dose
  Blood HEXIM1 mRNA change: increased
[1]; group P=0.00093
  HEXIM1 mRNA increased in resected brain tumor tissue versus archival tissue, patients: 15 of 18
[1]; tumor
  Tumor HEXIM1 RNA increased, patients: 10 of 11
[2]; 17 evaluable patients
  PD per RANO criteria: 59%
  stable disease per RANO criteria: 41%
[2]; IDH wild-type disease, 95% CI 1.4-3.6
  median PFS: 3.0 months
[2]; IDH wild-type disease, 95% CI 2.7-40.4
  6-month PFS rate: 16.3%
[2]; IDH-mutant disease
  6-month PFS rate: 0%
[2]; IDH-mutant disease, 95% CI 0.4-1.9
  median PFS: 1.2 months
[2]; all evaluable
  Six month progression-free survival: 12%
[2]; all evaluable, 95% CI 1.4-3.3
  Median progression-free survival (PFS): 1.9 months
Newly diagnosed GBM; adjuvant cohort
  best overall response: CR: 6%
  best overall response: NE: 6%
  best overall response: PD: 11%
  best overall response: SD: 78%
Newly diagnosed GBM; adjuvant cohort, 95% CI 3.9-NE
  median PFS: 7.7 months
Newly diagnosed GBM; adjuvant cohort, 95% CI 31.1-77.3
  progression-free survival (PFS) rate at 6 months: 57.8%
Newly diagnosed GBM; concomitant cohort
  best overall response: CR: 7%
  best overall response: NE: 7%
  best overall response: PD: 7%
  best overall response: SD: 79%
Newly diagnosed GBM; concomitant cohort, 95% CI 5.2-14.0
  median PFS: 12.3 months
Newly diagnosed GBM; concomitant cohort, 95% CI 37.3-87.2
  PFS rate at 6 months: 69.2%
